Assay: Human HepG2 cell viability assay in 384 well format
Assay type: toxicity, cell-based
Parameters: dose 125 nL, time 70.5 hour; cytotoxicity at 70.5 h: concentration not given beside the values
Conditions: HepG2 cells, read-out: Inhibition

Row | Compound | cytotoxicity at 70.5 h
1 | CC1CN(C(=O)Nc2ccc(Cl)c(C(=O)NC3CC3)c2)CC(C)(C)O1 (stereo unspecified) | -7.92%
2 | CS(=O)(=O)N1CCCC(Cc2cnc(Br)cn2)CC1 (stereo unspecified) | 13.7%
3 | Cc1noc(C)c1CN1CCC2(CCN(Cc3cccc(F)c3)CC2)C1 | -9.09%
4 | CC(C)OCc1cccc(NC(=O)N(C)Cc2ncnn2C)c1 | -9.1%
5 | CCC1=NN2C(=N)/C(=C\c3cccn3-c3ccc(Br)cc3)C(=O)N=C2S1 | 3.19%
6 | Cc1cc2nc(C(C)C)cc(NCCc3cccn3C)n2n1 | -8.08%
7 | CC(C)CN(CC(C)C)Cn1ncc2cn(-c3ccccc3)nc2c1=O | -2.25%
8 | NS(=O)(=O)CCNC(=O)C1(c2ccc(Br)cc2)CC1 | -10.5%
9 | O=C(COc1cccc2c1CCC2=O)NCCSc1ccccc1 | 3.81%
10 | COc1ccc(CNC(=O)Nc2ccc(N3CCCC3)nc2)cc1O | -2.31%
11 | Cc1nc(C2CCNCC2)cc(N2CCCC(C(=O)NCCCO)C2)n1 (stereo unspecified) | 10.6%
12 | CCc1nc(C2CCCN(C(=O)CCn3ccccc3=O)C2)no1 (stereo unspecified) | -0.684%
13 | CC(=O)NCCOc1cccc(Br)c1 | 2.45%
14 | CC(C)N1CC[C@H]2[C@H](C[C@@H](Cn3cncn3)N2c2nccs2)C1 | -6.46%
15 | Cc1nnc2n1CCN(C(=O)CN(C)Cc1ccccc1)C2 | 19.2%
16 | Cc1noc(C)c1CN1CCc2ncc(Cn3cccn3)n2CC1 | -5.78%
17 | O=C(C1=CCCC1)N1C[C@H](OCc2cccnc2)[C@H]2OCCC[C@H]21 | -9.34%
18 | O=C(O)CC1COCCN1Cc1ccccc1-c1ccccc1 (stereo unspecified) | 14.8%
19 | CCN(CC)C(=O)CSc1ncc[nH]1 | -8.92%
20 | CC(CO)NC(=O)Nc1ccc(COC2CCCC2)cc1 (stereo unspecified) | -2.03%
21 | CCC(=O)Nc1nnc(CCCOc2ccccc2)s1 | -13.1%

Row | Compound | cytotoxicity at 70.5 h
22 | CC1CCN(CCCNC(=O)c2ccc(N(C)S(C)(=O)=O)cc2Cl)CC1 | -4.93%
23 | Cc1ccc(C(=O)N2CC3(CCCCC3)c3cc(C(=O)O)ccc32)cn1 | 0.0823%
24 | CC(C)n1ccnc1C1CCN(C(=O)c2ccccc2)CC1 | 20.7%
25 | Cn1cc(-c2ncnc3c2CCN(C(=O)N2CCOCC2)CC3)cn1 | -5.18%
26 | O=C1N(Cc2ccncc2)CCC12CCCNC2 (stereo unspecified) | -4.76%
27 | Cc1cccc(CN2C(=O)C[C@H]3[C@@H]2CCN3Cc2ccc(F)cc2)n1 | -2.72%
28 | CNC(=O)COc1cccc(CNC(=O)c2c(C)noc2C(C)C)c1 | -13.2%
29 | CCn1ccnc1CN1CCCC1Cn1cc(C)cn1 (stereo unspecified) | 4.18%
30 | CCNC(=O)N1CCC2(CC1)CCn1c(-c3cccc(OC)c3)cnc12 | -6.74%
31 | Cc1cc(-c2nc(C3(NC(=O)OC(C)(C)C)CCC3)no2)on1 | -5.47%
32 | COc1ncccc1-c1nc(-c2ccccn2)nn1C1CCN(C)CC1 | -6.87%
33 | Cc1cnn(CC2CN(CC(=O)N(C)Cc3ccsc3)CCO2)c1 (stereo unspecified) | 5.76%
34 | Cc1cnc(CCN(C)C(=O)c2ccc(O)nc2C)s1 | -2.62%
35 | CCOCC1CN(Cc2cnn(C)c2)Cc2nn(CC3CC3)cc21 (stereo unspecified) | -10.4%
36 | Cc1nn(-c2ccccc2)cc1C(=O)N1CCCC(n2ccnc2C)C1 (stereo unspecified) | -4.52%
37 | CC(C)Cc1noc(C2CCCCN2C(=O)CCc2cnn(C)c2)n1 (stereo unspecified) | -7.69%
38 | Cc1cc(C)n(CC2CCCN2C(=O)c2nccc3ccccc23)n1 (stereo unspecified) | -0.984%
39 | CNc1cc(C2CCCN2Cc2ccccc2C(=O)O)ccn1 (stereo unspecified) | -9.85%
40 | O=C1COc2ccc(S(=O)(=O)NCCC3=CCCCC3)cc2N1 | 0.831%
41 | CNc1cccc(C2CN(C(=O)CNS(C)(=O)=O)CCO2)n1 (stereo unspecified) | 13%
42 | CCOCC(=O)Nc1cc(-n2nnnc2C2CC2)ccc1F | 0.6%

Row | Compound | cytotoxicity at 70.5 h
43 | Cc1cc(-c2cncnc2)ccc1OCC(N)=O | 13.6%
44 | CCN1CCN(c2ccc(C(=O)NC(C)c3ccncc3)cc2)CC1 (stereo unspecified) | 6.23%
45 | CCCc1cc(C(=O)NC(c2ccccc2)c2n[nH]c(C)n2)[nH]n1 (stereo unspecified) | -7.51%
46 | Cc1ccc(F)cc1NC(=O)CNc1cccc2c1CCCC2 | -7.64%
47 | CC(C)c1noc(CN2CCN(C(=O)c3ccc(F)cc3)CC2)n1 | -3.61%
48 | CC(NC(=O)NCc1ccccc1)(C(=O)O)c1ccco1 (stereo unspecified) | -9.81%
49 | COc1ccc([C@@H]2CN(c3cc(OC)nc(N)n3)C[C@H]2N(C)C)cc1 | -3.33%
50 | CCC(CN1CCN(C)CC1)NC(=O)C1(c2cccc(F)c2)CC1 (stereo unspecified) | -4.87%
51 | COCC(=O)NCc1cc(=O)n2c(n1)CN(Cc1ccco1)CCC2 | 2.27%
52 | COC(=O)c1ccc(CNC(=O)CN2C[C@@H](NC(C)=O)[C@H](C(C)C)C2)o1 | -6.07%
53 | O=C(NCCCN1CCOCC1)c1cccc(OCc2ccccc2)c1 | -2.84%
54 | COc1ccccc1CC(=O)N1CCCC(c2cc(C)[nH]n2)C1 (stereo unspecified) | 3.02%
55 | Cc1nn(C)c(N(C)C)c1CNCc1ccnc(N2CCCC2)c1 | -4.33%
56 | CC(C)(C)NC(=O)NCc1cnn2ccccc12 | -9.3%
57 | Nc1cc(-c2cc[nH]n2)nc(N2CCCC2)n1 | 5.5%
58 | Cc1ccc(OC2(C(=O)N(C)Cc3ccoc3)CCNCC2)cc1 | -16.8%
59 | CN(C)CCNCC1(O)CCCN(Cc2cccc(F)c2F)C1=O (stereo unspecified) | 16.1%
60 | Cc1ncc(CN2CCC(N(C)Cc3noc(C4CC4)n3)C2)s1 (stereo unspecified) | 19%
61 | COCC1N(S(=O)(=O)c2cn(C)cn2)[C@H]2CC[C@]1(O)CC2 (stereo partly specified) | -7.28%
62 | COCC(O)CNC(=O)Nc1ccc(Cl)cc1-n1cccc1 (stereo unspecified) | -7.23%
63 | CN(C)c1ccnc(N2CCC(NCCOc3ccccc3)CC2)n1 | 19.6%

Row | Compound | cytotoxicity at 70.5 h
64 | FC(F)(F)CCN(Cc1ccon1)C1CCC1 | -7.34%
65 | Cc1cn(CC(=O)NC2CCC(C(=O)O)CC2)c2ccccc12 (stereo unspecified) | -6.01%
66 | CS(=O)(=O)NCc1n[nH]c2c1CCN(C(=O)c1ccsc1)C2 | 30.1%
67 | CC(C)NC(=O)N1CCN(CC2CC2)CC2(CC(=O)N(C)C2)C1 (stereo unspecified) | -4.82%
68 | Cc1ccc(CN2CC(C(=O)NC(C)C)C3(CCOCC3)C2)s1 (stereo unspecified) | -11.4%
69 | CC(C)OCC(=O)N1CCC(c2ncncc2-c2ccnc(N)c2)C1 (stereo unspecified) | -5.98%
70 | COc1ccc(OC)c(CN2CCc3nc4ccsc4c(=O)n3CC2)c1 | 38.7%
71 | CCCN1CCC(N2CCC(Cn3cc(C4CC4)nn3)CC2)CC1 | -8.35%
72 | Cn1ccnc1CN1CCCC1c1noc(C2CC2)n1 (stereo unspecified) | 1.39%
73 | CN(C)c1ccc(C(=O)NCc2cccnc2-n2cncn2)cc1F | -17.5%
74 | CCc1cnc(N2CCC3(CCN(Cc4cccc(C)c4)C3=O)C2)nc1 (stereo unspecified) | 1.75%
75 | CCC(=O)N1CCC(c2ncncc2C)CC1 | -1.94%
76 | CCN(CC)c1ncccc1CNCc1ccc(Cl)s1 | -7.77%
77 | CCOC(=O)N1CCN(C(=O)c2sc(-c3ccc(F)cc3)nc2C)CC1 | -8.29%
78 | O=C(c1cocn1)N1C[C@@H]2CN(Cc3ccco3)CCO[C@@H]2C1 | -9.1%
79 | CN(CCCNC(=O)c1ccc(C#N)cc1)CC(F)(F)F | 5.13%
80 | CC(=O)N[C@H]1CCO[C@@H](c2cccc(NC(=O)c3ccc(=O)[nH]n3)c2)C1 | 24.6%
81 | Cc1ccc(C(=O)N2CC(=O)N(Cc3ccco3)CC(O)C2)cc1 (stereo unspecified) | -2.64%
